According to patent US8383637B2, “2-amino-quinazoline derivatives useful as inhibitors of β-secretase (BACE)” (Jansssen Pharmaceutica N.V., priority 2004, dated 2013):
Where “and” joins values, the source holds several entries; their conditions need not be identical. Identical values can stand only once. Like-named read-outs stand apart in the source and are kept apart here.

Legend:
[1] = molecular target: T1, β-secretase(BACE) (Homo sapiens, UniProt P56817); assay: BACE Assay-2 (FS1 substrate, IC50 and Ki); format: biochemical; details: procedure of Example 159, FS1 substrate; read-out: Ki μM (159)
T1 construct: purchased Panvera
T1 sequence (P56817 46-501): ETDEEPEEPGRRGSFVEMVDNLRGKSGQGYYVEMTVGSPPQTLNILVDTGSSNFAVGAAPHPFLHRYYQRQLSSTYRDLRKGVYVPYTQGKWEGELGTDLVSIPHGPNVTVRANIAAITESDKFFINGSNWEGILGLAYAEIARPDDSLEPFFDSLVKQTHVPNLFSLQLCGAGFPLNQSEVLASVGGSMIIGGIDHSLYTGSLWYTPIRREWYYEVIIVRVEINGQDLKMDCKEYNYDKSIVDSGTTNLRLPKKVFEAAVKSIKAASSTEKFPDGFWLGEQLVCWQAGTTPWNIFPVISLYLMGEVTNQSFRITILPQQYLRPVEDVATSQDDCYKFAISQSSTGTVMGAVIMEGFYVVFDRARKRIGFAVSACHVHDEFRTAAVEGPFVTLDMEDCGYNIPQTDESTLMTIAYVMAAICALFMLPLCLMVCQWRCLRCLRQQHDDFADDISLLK
Method: The FS1-substrate stock solution was prepared in DMSO as a 10 mg/mL solution. The FS1-substrate working solution was prepared by diluting the 10 mg/mL stock solution with substrate assay buffer to a final concentration of 300 μg/mL. The β-secretase (BACE) working solution was prepared by diluting a 0.83 mg/mL BACE stock solution with enzyme assay buffer to a final concentration of 4 μg/mL.
Test compounds were dissolved in DMSO at 10 mM.
The procedure for this assay was as follows: 15 μL of BACE working solution was pipetted into each well of a 96-well plate. To each well was then pipetted 2 μL of test compound at the selected concentration. Test compound and BACE were then mixed with a pipettor and incubated for 20 min at room temperature. To each well was then added 10 μL of the FS1 substrate working solution.
The procedure for the positive control was as follows: 15 μL of BACE working solution was pipetted into each well to be used as a positive control. To each well was then pipetted 2 μL of vehicle. Vehicle and BACE were then mixed with a pipettor and incubated for 20 min at room temperature. To each well was then added 10 μL of the FS1 substrate working solution.
For test compounds, measured at multiple concentrations, the measured T0 and T60 values were used to calculate an IC50 value using Graphpad Software (or PIR). For test compounds, Ki inhibition was determined as follows: For each compound concentration and positive control, rate of cleavage of substrate (Vi, where i=compound concentration in μM) was determined as Δ Fluorescence/Δ time (min). Cleavage rates (Vi) were plotted as a function of inhibitor concentration in μM [I]. The Ki was then determined by fitting the following equation to the graph of [I] vs Vi Y=aVmax/(50+24*(1+X/Ki)),

[2] = molecular target: T1, β-secretase(BACE); assay: BACE FS1% Inhibition Assay; format: biochemical; details: FS1 substrate
How it was run: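 Percent inhibition at each tested concentration, referenced to enzyme-free blank and vehicle-only positive control. Reaction: compound and BACE (4 μg/mL working stock) mixed 20 min at room temperature before FS1 substrate (300 μg/mL working stock), then 1 h at room temperature.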

[3] = 0.3 μM test compound, read-out: % Inhibition (FS) 0.3 μM
[4] = 1 μM test compound, read-out: % Inhibition (FS) 1 μM
[5] = 3 μM test compound, read-out: % Inhibition (FS) 3 μM
[6] = 0.3 μM test compound, read-out: % Inhibition (FS)
[7] = 1 μM test compound, read-out: % Inhibition (FS)
[8] = 3 μM test compound, read-out: % Inhibition (FS)

SMILES | Ki [1] | inhibition at 0.3 µM [2, 3] | inhibition at 1 µM [2, 4] | inhibition at 3 µM [2, 5] | inhibition at 0.3 µM [2, 6] | inhibition at 1 µM [2, 7] | inhibition at 3 µM [2, 8] | inhibition at 10 µM ([2]; 10 μM test compound, read-out: % Inhibition (FS) 10 μM) | % Inhibition (FS) ([2]; 0.3 μM test compound, 0.3 µM) | % Inhibition (FS) ([2]; 1 μM test compound, 1 µM) | % Inhibition (FS) ([2]; 3 μM test compound)
CN(C(=O)c1cccc(CN2Cc3cc(-c4cccnc4)ccc3N=C2N)c1)C1CCCCC1 [Compound 170] | 0.77 µM | < 30% | 49% | 67% |  |  |  |  |  |  | 
CN(C(=O)c1cccc(CN2Cc3cc(-c4ccccc4C#N)ccc3N=C2N)c1)C1CCCCC1 [Compound 263] | 0.77 µM | 20% | 60% | 92% |  |  |  |  |  |  | 
CN(C(=O)CC[C@@H](C1CCC2(CC1)OCCO2)N1Cc2cc(Oc3ccccc3)ccc2N=C1N)C1CCCCC1 [Compound 730, S-enantiomer of 4-(2-Amino-6-phenoxy-4H-quinazolin-3-yl)-N-cyclohexyl-4-(1,4-dioxa-spiro[4.5]dec-8-yl)-N-methyl-butyramide] | 0.054 µM |  |  |  | 93% | 109% | 114% |  |  |  | 
CN(C(=O)CCC(C1CCCCC1)N1Cc2cc(Oc3ccccc3)ccc2N=C1N)C1CCCC(C(=O)O)C1 (stereo not drawn) [Compound 776] | 0.107 µM |  |  |  | 41% | 95% | 117% |  |  |  | 
NC1=Nc2ccc(Oc3ccccc3)cc2CN1[C@@H](CCC(=O)N(Cc1nnn[nH]1)C1CCCCC1)C1CCCCC1 [Compound 787, 4-(2-Amino-6-phenoxy-4H-quinazolin-3-yl)-4S,N-dicyclohexyl-N-(1H-tetrazol-5-ylmethyl)-butyramide] | 0.038 µM |  |  |  | 108% | 109% | 121% |  |  |  | 
NC1=Nc2ccc(-c3ccccc3F)cc2CN1CCNC(=O)C1CCCCC1 [Compound 535] | 0.076 µM | 57% | 86% | 116% |  |  |  |  |  |  | 
CN(C(=O)c1cccc(CN2Cc3cc(-c4csc5ccccc45)ccc3N=C2N)c1)C1CCCCC1 [Compound 265] | 1.1 µM | < 30% | 55% | 92% |  |  |  |  |  |  | 
NC1=Nc2ccc(Oc3ccccc3)cc2CN1[C@@H](CCC(=O)N(CCOCc1ccccc1)[C@H]1CC[C@@H](C(=O)O)CC1)C1CCOCC1 [Compound 751, (S)-enantiomer of 4-[[4-(2-Amino-6-phenoxy-4H-quinazolin-3-yl)-4-(tetrahydro-pyran-4-yl)-butyryl]-(2-benzyloxy-ethyl)-amino]-cyclohexanecarboxylic acid] | 0.025 µM |  |  |  | 112% | 112% | 116% |  |  |  | 
Cc1ccccc1-c1ccc2c(c1)CN(CCNC(=O)C1CCOCC1)C(N)=N2 [Compound 693] | 0.17 µM |  |  |  | 47% | 83% | 109% |  |  |  | 
CN(C(=O)CCC(C1CCOCC1)N1Cc2cc(Oc3ccccc3)ccc2N=C1N)C1CCCCC1 (stereo not drawn) [Compound 619] | 0.011 µM | 119% | 118% | 125% |  |  |  |  |  |  | 
CN(C(=O)c1ccc(CN2Cc3cc(Oc4ccccc4)ccc3N=C2N)o1)C1CCCCC1 [Compound 424, 5-(2-Amino-6-phenoxy-4H-quinazolin-3-ylmethyl)-furan-2-carboxylic acid cyclohexyl-methyl-amide] | 0.4 µM | < 30% | 50% | 94% |  |  |  |  |  |  | 
CCCC(CCCC(=O)NC1CCCCCC1)N1Cc2cc(Oc3ccccc3)ccc2N=C1N (stereo not drawn) [Compound 137] | 0.73 µM |  |  | 82% |  |  |  | 107% |  |  | 
CN(C(=O)c1cccc(CN2Cc3cc(-c4ccccc4F)ccc3N=C2N)c1)C1CCCCC1 [Compound 334] | 0.068 µM | 74% | 103% | 118% |  |  |  |  |  |  | 
CN(C(=O)CC[C@@H](C1CCOCC1)N1Cc2cc(Oc3ccccc3)ccc2N=C1N)[C@H]1CC[C@H](C(=O)O)CC1 [Compound 746] | 0.035 µM |  |  |  | 85% | 104% | 112% |  |  |  | 
CC(C)CCC(=O)NCCN1Cc2cc(-c3ccccc3F)ccc2N=C1N [Compound 647] | 0.033 µM | 79% | 100% | 113% |  |  |  |  |  |  | 
CC(C)[C@H](CNC(=O)C1CCCCC1)N1Cc2cc(Oc3ccccc3)ccc2N=C1N [Compound 561] | 0.016 µM | 114% | 118% | 125% |  |  |  |  |  |  | 
COc1ccccc1-c1ccc2c(c1)CN([C@@H](CCC(=O)N(C)CCC#N)C1CCCCC1)C(N)=N2 [Compound 720] | 0.3 µM |  |  |  | 72% | 93% | 138% |  |  |  | 
COc1cccc(OC)c1-c1ccc2c(c1)CN(Cc1cccc(C(=O)N(C)C3CCCCC3)c1)C(N)=N2 [Compound 264] | 0.78 µM | 26% | 63% | 92% |  |  |  |  |  |  | 
CN(C(=O)c1cccc(C(C2CCCCC2)N2Cc3cc(Oc4ccccc4)ccc3N=C2N)c1)C1CCCCC1 (stereo not drawn) [Compound 534] | 0.18 µM | 54% | 103% | 126% |  |  |  |  |  |  | 
CN(C(=O)CC[C@@H](C1CCCCC1)N1Cc2cc(Oc3ccccc3)ccc2N=C1N)C1CCOCC1 [Compound 638] | 0.23 µM | 74% | 101% | 116% |  |  |  |  |  |  | 
CC(C)C(CC(=O)N(C)C1CCCCC1)N1Cc2cc(Oc3ccccc3)ccc2N=C1N (stereo not drawn) [Compound 201] | 0.4 µM | < 30% | < 30% | 66% |  |  |  |  |  |  | 
CN(C(=O)CC[C@@H](C1CCOCC1)N1Cc2cc(Oc3ccccc3)ccc2N=C1N)[C@H](COCc1ccccc1)C(=O)O [Compound 784, 2-{[4-(2-Amino-6-phenoxy-4H-quinazolin-3-yl)-4S-(tetrahydro-pyran-4-yl)-butyryl]-methyl-amino}-3R-benzyloxy-propionic acid] | 0.298 µM |  |  |  | 107% | 108% | 120% |  |  |  | 
Cc1cccc(C)c1-c1ccc2c(c1)CN(Cc1cccc(C(=O)N(C)C3CCCCC3)c1)C(N)=N2 [Compound 262] | 0.66 µM | 39% | 63% | 95% |  |  |  |  |  |  | 
CN(C(=O)CC[C@@H](C1CCCCC1)N1Cc2cc(Oc3ccccc3)ccc2N=C1N)C1CCC(C(=O)O)CC1 (stereo partly drawn) [Compound 714, 4-{[4-(2-Amino-6-phenoxy-4H-quinazolin-3-yl)-4-(S)-cyclohexyl-butyryl]-methyl-amino}-cyclohexanecarboxylic acid] | 0.029 µM and 0.022 µM |  |  |  | 100% | 126% | 138% |  | 98% | 129% | 138%
Cc1ccccc1Oc1ccc2c(c1)CN(Cc1cccc(C(=O)N(C)C3CCCCC3)c1)C(N)=N2 [Compound 293] | 1.1 µM | < 30% | 44% | 81% |  |  |  |  |  |  | 
